Test results from patent US20250109127A1, “METHODS OF USE OF PHENOXYPROPYLAMINE COMPOUNDS TO TREAT DEPRESSION” (Minerva Neurosciences, Inc., priority 2013, published 2025).
Where “and” joins values, the source holds several entries; their conditions need not be identical. Identical values can stand only once.

Tested on: HVA release in the rat prefrontal cortex
Assay: Microdialysis: HVA release in prefrontal cortex after I.P. administration
Assay type: in vivo
Conditions: Citalopram 10 mg/kg I.P.
Experimental: The aim of the study was to evaluate, using microdialysis, the effects of an intraperitoneal (I.P.) administration in rats of three different doses of SON-117 on dopamine and its metabolites, serotonin and its metabolite (5-HIAA), and norepinephrine levels in prefrontal cortex.
Thirty-two adult male Wistar rats were used for the whole study (4 groups of eight animals planned for the study, Table 1).
Surgery was performed on rats weighing about 300 g at the beginning of the experiments. Rats were anaesthetized with Ketamine (50 mg/kg) & Xylazine (15 mg/kg) by intramuscular administration. The animals were placed in a stereotaxic apparatus in the flat-skull position at a constant setting of −3.3 mm between ear bars and the incisor bar. The animals were treated with a local anesthesic (xylocaine 1%, Astra Zeneca) and an analgesic (Temgesic, from Schering Plough, 0.05 mg/kg, s.c.). A rostrocaudal midline incision was made with a lancet to expose the dorsal skull surface. The “stereotaxic zero” was defined by the Bregma in accordance with Paxinos and Watson's atlas (1986). A hole was drilled in the skull with a drill and the meninges were pierced with a sterile needle to implant a CMA12 guide cannula which later received the dialysis probe.
Coordinates used for implanting guide cannula in prefrontal cortex from Bregma were anteroposterior 3.7 mm, mediolateral 0.8 mm, and dorsoventral −2 mm (top of the probe was at −5 mm). The guide cannula was fixed to the skull with two stainless steel screws (1.88 mm outside diameter) anchored. An application of dental cement was added. A plastic collar allowed each animal to be tethered to a Swivel assembly of the CMA 120 awake animal system. Following surgery, rats were kept in individual cages and allowed to recover for a minimum of 3-5 days before the experimentation. The rats were handled and put in plastic bowl for 10 min at least every day to habituate the animals to their new environment for the dialysis. An I.P. administration with saline was also performed every day.
Dialysis probes (CMA12/3 mm, membrane, 20 kD cut-off, Carnegie Medicine, Stockholm, Sweden), were carefully washed before inserting into the guide cannula. The wash was performed with the artificial cerebrospinal fluid (aCSF) medium (NaCl 147 mM, KCl 2.7 mM, CaCl2 1.2 mM, MgCl2 0.85 mM) at room temperature. The dialysis system was then equilibrated at 20° C. at a perfusion rate of 1 μl/min with a Carnegie pump (CMA100). All catheters (FEP tubing, internal volume of 1.2 μl/10 cm, and tubing adaptors) used for microdialysis were treated in the same conditions.
The probes duly prepared were inserted into the guide cannula and the CMA120 Swivel assembly secured to the animal using a plastic collar. Flow through the dialysis probe with aCSF was maintained at a rate of 1 μl/min during the whole experimentation. The first four fractions (corresponding to 2 hours) were discarded to avoid the effects of parenchymal disturbance and to ensure that an approximate steady-state level was reached. Fractions were then collected over a period of 8.5 h during which time the animals remained quiet. The dialysates were automatically collected with an autosampler (microfraction collector CMA 140, Carnegie Medicin) and stored at −80° C. until analysis. […] Perfusion was then maintained for 7 hours with aCSF. The dialysates (30 μl) were collected into 300 μl vials, transferred into dry ice and then kept frozen (−80° C.) until analysis. Frozen samples were shipped to a partner for analysis. At the end of the microdialysis study, a PBS with colored ink was perfused through the probe in order to visualize the dialyzed area.
Catecholamine assay: Concentrations of dopamine, DOPAC, HVA, 5-HIAA, 5-HT, and norepinephrin were determined for each sample by HPLC coupled with electrochemical detection.

CN(C)CCCC1(c2ccc(F)cc2)OCc2cc(C#N)ccc21 (stereo not shown) [Citalopram, citalopram, reference compound]
HVA in dialysate, MEAN (T0-T30 min): 102.65 % of respective basal
HVA in dialysate, MEAN (T30-T1 h): 105.17 % of respective basal
HVA in dialysate, individual animals (T30-T1 h): 110.26 % of respective basal and 73.39 % of respective basal and 105.80 % of respective basal and 135.08 % of respective basal and 125.22 % of respective basal and 95.29 % of respective basal and 76.23 % of respective basal and 120.12 % of respective basal
HVA in dialysate, MEAN (T1 h 30-T2 h): 106.38 % of respective basal
HVA in dialysate, individual animals (T1 h 30-T2 h): 104.10 % of respective basal and 113.65 % of respective basal and 118.49 % of respective basal and 112.13 % of respective basal and 90.95 % of respective basal and 85.54 % of respective basal and 119.96 % of respective basal
HVA in dialysate, MEAN (T1 h-T1 h 30): 112.92 % of respective basal
HVA in dialysate, individual animals (T1 h-T1 h 30): 120.80 % of respective basal and 108.77 % of respective basal and 119.99 % of respective basal and 133.87 % of respective basal and 130.19 % of respective basal and 94.21 % of respective basal and 78.63 % of respective basal and 116.88 % of respective basal
HVA in dialysate, MEAN (T2 h 30-T3 h): 99.23 % of respective basal
HVA in dialysate, individual animals (T2 h 30-T3 h): 86.24 % of respective basal and 96.34 % of respective basal and 105.81 % of respective basal and 109.56 % of respective basal and 114.62 % of respective basal and 86.75 % of respective basal and 85.57 % of respective basal and 108.98 % of respective basal
HVA in dialysate, MEAN (T2 h-T2 h 30): 104.43 % of respective basal
HVA in dialysate, individual animals (T2 h-T2 h 30): 119.22 % of respective basal and 102.87 % of respective basal and 120.09 % of respective basal and 114.29 % of respective basal and 113.51 % of respective basal and 80.94 % of respective basal and 78.69 % of respective basal
HVA in dialysate, MEAN (T3 h 30-T4 h): 106.01 % of respective basal
HVA in dialysate, individual animals (T3 h 30-T4 h): 116.4 % of respective basal and 101.70 % of respective basal and 115.15 % of respective basal and 111.71 % of respective basal and 116.15 % of respective basal and 91.42 % of respective basal and 83.19 % of respective basal and 112.34 % of respective basal
HVA in dialysate, MEAN (T3 h-T3 h 30): 99.27 % of respective basal
HVA in dialysate, individual animals (T3 h-T3 h 30): 120.94 % of respective basal and 53.98 % of respective basal and 122.37 % of respective basal and 100.07 % of respective basal and 116.40 % of respective basal and 87.92 % of respective basal and 83.63 % of respective basal and 108.86 % of respective basal
HVA in dialysate, MEAN (T4 h 30-T5 h): 104.36 % of respective basal
HVA in dialysate, individual animals (T4 h 30-T5 h): 122.34 % of respective basal and 105.68 % of respective basal and 105.06 % of respective basal and 88.58 % of respective basal and 115.04 % of respective basal and 93.59 % of respective basal and 99.55 % of respective basal and 105.03 % of respective basal
HVA in dialysate, MEAN (T4 h-T4 h 30): 102.95 % of respective basal
HVA in dialysate, individual animals (T4 h-T4 h 30): 114.29 % of respective basal and 100.59 % of respective basal and 112.89 % of respective basal and 101.71 % of respective basal and 116.86 % of respective basal and 75.84 % of respective basal and 89.63 % of respective basal and 111.78 % of respective basal
HVA in dialysate, MEAN (T5 h 30-T6 h): 101.24 % of respective basal
HVA in dialysate, individual animals (T5 h 30-T6 h): 117.67 % of respective basal and 97.79 % of respective basal and 98.75 % of respective basal and 98.06 % of respective basal and 103.48 % of respective basal and 81.28 % of respective basal
HVA in dialysate, MEAN (T5 h-T5 h 30): 90.91 % of respective basal
HVA in dialysate, individual animals (T5 h-T5 h 30): 56.25 % of respective basal and 103.6 % of respective basal and 88.87 % of respective basal and 96.67 % of respective basal and 94.02 % of respective basal and 92.05 % of respective basal and 104.93 % of respective basal
HVA in dialysate, MEAN (T6 h 30-T7 h): 96.98 % of respective basal
HVA in dialysate, individual animals (T6 h 30-T7 h): 91.33 % of respective basal and 101.80 % of respective basal and 95.80 % of respective basal and 96.50 % of respective basal and 91.69 % of respective basal and 93.72 % of respective basal and 98.54 % of respective basal
HVA in dialysate, MEAN (T6 h-T6 h 30): 98.82 % of respective basal
HVA in dialysate, individual animals (T6 h-T6 h 30): 123.42 % of respective basal and 100.15 % of respective basal and 101.33 % of respective basal and 91.37 % of respective basal and 91.61 % of respective basal and 99.80 % of respective basal and 86.50 % of respective basal and 96.35 % of respective basal
HVA in dialysate, MEAN (T-30 min-T0 (pre-dose)): 100.15 % of respective basal
HVA in dialysate, MEAN (T-1 h 30-T-1 h (pre-dose)): 103.32 % of respective basal
HVA in dialysate, individual animals (T-1 h 30-T-1 h (pre-dose)): 98.60 % of respective basal and 95.37 % of respective basal
HVA in dialysate, MEAN (T-1 h-T-30 min (pre-dose)): 97.36 % of respective basal
